Measured values: publication PMC6478789, “A chemical toolbox for the study of bromodomains and epigenetic signaling” (Nature Communications, 2019)

How the values were obtained:
MYST3 = MYST3 (Homo sapiens, UniProt Q92794); experiment: Histone acetyltransferase (HAT) activity assay; assay type: biochemical; details: read-out: HATs Activity (%);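 also: selectivity screen of bromodomain probe compounds across a panel of histone acetyltransferases, read out as enzyme activity in %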
three TNBC lines = experiment: Combinatorial screen of BRD inhibitors with or without BAY-876 (confluency); assay type: cell-based, human; details: 3 μM probe + 3 μM BAY-876
Description: Fig. 6 BRD inhibitors leverage metabolic adaptations induced by glucose transporter I (GLUT1) inhibition in TNBC. a BRD inhibitor screening across ten TNBC cell lines. Cells were treated with indicated BRD inhibitors at 3 μM for 7 days. Confluency was measured using an IncuCyte ZOOM live cell imaging device. Data shown are mean ± s.d. of n = 4 independent cell culture grown and treated cells. A two-sided Student’s t test was used to derive the p-values. b SLC2A1 gene expression in the The Cancer Genome Atlas (TCGA) breast datasets. The cohorts were divided into TNBCs (red) and non-TNBCs (blue) according to PAM50 classification. Gene expression is reported as median-centered expression log2 values. The number of patients (n) per group is indicated. P-values were determined using a Wilcoxon's rank-sum test. c Glucose uptake in MDA-MB-436 cells in response to BAY-876 treatment relative to vehicle. MDA-MB-436 cells were treated with dimethyl sulfoxide (DMSO) or 3 µM BAY-876 for 5 days. Graph indicates mean, error bars denote s.d. from three independent assays and p-value was computed using the Benjamini-Hochberg t test; ***p < 0.001. d Effects of BAY-876 treatment on the intracellular acetyl-CoA level. Graph indicates mean, error bars denote s.d. from three independent assays and p-value was computed using the Benjamini-Hochberg t test; ***p < 0.001. e Effects of BAY-876 treatment on intracellular NAD^+/NADH level. Graph indicates the mean, error bars denote s.d. from three independent assays and p-value computed using the Benjamini-Hochberg t test; **p < 0.01. f Immunoblot analysis of H3 and H4 acetylation in MDA-MB-436 cells before and after BAY-876 treatment. P-value computed using the Benjamini-Hochberg t test; ***p < 0.001. g Cell growth effects of BAY-876 treatment on three representative cell lines. n.s. not significant. h Combinatorial screening of BRD inhibitors with or without 3 μM BAY-876 across ten TNBC cell lines. Cell confluency was obtained from the endpoint Incucyte scanning. (Left) Heatmap of the combinatorial screening results; (Right) Cell confluency after treatment with three potential BRDi candidates at 3 μM in the presence or absence of 3 μM BAY-876 in three representative cell lines. Graph indicates mean, error bars denote s.d. from three independent assays and p-values were computed using the Benjamini-Hochberg t test; **p < 0.01; ***p < 0.001. Raw data images are available in Supplementary Fig. 4
TNBC cell lines were seeded in sterile, transparent 384-well plates at 500 cells per well in 50 µl media. Chemical probes were delivered in dimethyl sulfoxide (DMSO). Cell confluency at 7 days was evaluated using an Incucyte ZOOM live cell imaging device (Essen Bioscence) and analyzed with the Incucyte ZOOM (2016A) software based on phase contrast image.

MYST1 = target: T1, MYST1 (Homo sapiens, UniProt Q9H7Z6); experiment: Histone acetyltransferase (HAT) activity assay; assay type: biochemical; details: read-out: HATs Activity (%);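 also: selectivity screen across a panel of histone acetyltransferases, with compounds tested at 1 and 10 µM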
T1 sequence (Q9H7Z6 1-458): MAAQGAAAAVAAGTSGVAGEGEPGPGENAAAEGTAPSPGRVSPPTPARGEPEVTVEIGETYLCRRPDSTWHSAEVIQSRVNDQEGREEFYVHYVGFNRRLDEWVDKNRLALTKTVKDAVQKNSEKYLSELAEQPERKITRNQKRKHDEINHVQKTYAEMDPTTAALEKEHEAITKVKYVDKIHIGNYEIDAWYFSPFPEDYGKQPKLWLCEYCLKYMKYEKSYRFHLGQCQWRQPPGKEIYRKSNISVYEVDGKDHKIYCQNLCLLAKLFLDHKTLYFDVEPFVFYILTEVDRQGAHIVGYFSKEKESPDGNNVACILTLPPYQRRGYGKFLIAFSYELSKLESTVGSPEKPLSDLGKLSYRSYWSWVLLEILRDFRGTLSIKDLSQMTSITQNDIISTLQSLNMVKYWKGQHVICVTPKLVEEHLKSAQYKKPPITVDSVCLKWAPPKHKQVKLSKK

HAT1 = target: T2, HAT1 (Homo sapiens, UniProt O14929); experiment: Histone acetyltransferase (HAT) activity assay; assay type: biochemical; details: read-out: HATs Activity (%);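 also: HAT selectivity screen of BRD probe compounds, enzyme activity in % measured with compound at 1 µM and 10 µM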
T2 sequence (O14929 1-419): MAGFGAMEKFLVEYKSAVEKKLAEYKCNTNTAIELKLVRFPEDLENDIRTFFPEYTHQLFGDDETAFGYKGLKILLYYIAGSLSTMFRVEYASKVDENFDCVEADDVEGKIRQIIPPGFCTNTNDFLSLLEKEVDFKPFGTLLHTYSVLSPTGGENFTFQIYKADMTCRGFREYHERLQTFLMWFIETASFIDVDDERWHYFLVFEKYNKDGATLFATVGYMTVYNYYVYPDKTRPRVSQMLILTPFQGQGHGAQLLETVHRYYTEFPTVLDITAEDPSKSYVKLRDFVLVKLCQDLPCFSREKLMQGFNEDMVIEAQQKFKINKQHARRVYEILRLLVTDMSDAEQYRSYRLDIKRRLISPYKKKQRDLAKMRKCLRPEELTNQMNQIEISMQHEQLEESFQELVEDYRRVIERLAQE

C2C12 myoblast cells = experiment: Gene-expression analysis (microarray); assay type: cell-based, mouse; details: 12 h; 500 nM (JQ1, LP-99), 2 μM (GSK2801, BAZ2-ICR, BSP)
Description: Total RNA was extracted using the PureLink^TM RNA mini kit (Thermo Fisher Scientific, 12183018A) as per the manufacturer’s protocol.
RNA samples were processed for oligonucleotide microarray profiling utilizing the Affymetrix Clariom^TM S Assay HT mouse. Quality controls were carried out in R (v.3.5.1) and Bioconductor[71] (v.3.7) using the arrayQualityMetrics package (v.3.36.0) taking into account array intensity distributions, distance between arrays, and variance mean dependence. Principal component analysis was used to decide which arrays to process together. After quality control, arrays were corrected for background, normalized, and log2-transformed together using the rma function of the oligo package (v.1.44)[73] in R/Bioconductor. Probes with small variance across samples were filtered out using the genefilter (v.1.62) package, employing the nsFilter function and an interquartile range cut-off of 0.28 (or >log(1.2), determined by the midpoint of the shortest interval containing half of the data). This reduced the number of probes of the Clariom^TM S array from 29,129 to 14,538.
Differential expression analysis was conducted using the limma package (v.3.36.2)[74], employing a linear model followed by empirical Bayesian analysis to determine differential expression between not-treated and treated samples.

EP300 = EP300 (Homo sapiens, UniProt Q09472); experiment: Histone acetyltransferase (HAT) activity assay; assay type: biochemical; details: read-out: HATs Activity (%);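 also: selectivity screen of bromodomain probe compounds against histone acetyltransferases, with enzyme activity given in percent for compounds tested at 1 and 10 µM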
ten TNBC cell lines = experiment: High-throughput screening of bromodomain inhibitors in TNBC panel (confluency); assay type: cell-based, human; details: 3 μM, 7 days
Description: Fig. 6 BRD inhibitors leverage metabolic adaptations induced by glucose transporter I (GLUT1) inhibition in TNBC. a BRD inhibitor screening across ten TNBC cell lines. Cells were treated with indicated BRD inhibitors at 3 μM for 7 days. Confluency was measured using an IncuCyte ZOOM live cell imaging device. Data shown are mean ± s.d. of n = 4 independent cell culture grown and treated cells. A two-sided Student’s t test was used to derive the p-values. b SLC2A1 gene expression in the The Cancer Genome Atlas (TCGA) breast datasets. The cohorts were divided into TNBCs (red) and non-TNBCs (blue) according to PAM50 classification. Gene expression is reported as median-centered expression log2 values. The number of patients (n) per group is indicated. P-values were determined using a Wilcoxon's rank-sum test. c Glucose uptake in MDA-MB-436 cells in response to BAY-876 treatment relative to vehicle. MDA-MB-436 cells were treated with dimethyl sulfoxide (DMSO) or 3 µM BAY-876 for 5 days. […]
TNBC cell lines were seeded in sterile, transparent 384-well plates at 500 cells per well in 50 µl media. […] Cell confluency at 7 days was evaluated using an Incucyte ZOOM live cell imaging device (Essen Bioscence) and analyzed with the Incucyte ZOOM (2016A) software based on phase contrast image.

GCN5L2 = GCN5L2 (Homo sapiens, UniProt Q92830); experiment: Histone acetyltransferase (HAT) activity assay; assay type: biochemical; details: read-out: HATs Activity (%);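 also: selectivity screen of BRD probe compounds across a panel of histone acetyltransferases, HAT activity in % with compound at 1 or 10 µM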
[1] = test system: BT-549 and MDA-MB436 cell lines; experiment: JQ1 dose-response with or without BAY-876; assay type: cell-based, human; details: with or without 3 μM BAY-876, 7 days
Description: and error bars denote standard deviation from three independent assays. p value computed using a one-way ANOVA test; ****** p<0.001. e) The colony formation of indicated cells with 3μM indicated chemical probes treatment for 14 days. f) MDA-MB436 cells were treated with 3μM indicated chemical probes for 5 days. Cell apoptotic activity was quantified by the fluorescent caspase 3/7 active objects. Graph indicate mean and error bars denote standard deviation from four independent assays. p value computed using one-way ANOVA t test; ****
Graph indicate mean and error bars denote standard deviation from four independent assays. p value computed using a two- stage step-up Benjamini t test i) Dose dependent
Graph indicate mean and error bars denote standard deviation from four independent assay s. p value computed using a two - stage step -up Benjamini t test j) Immunoblot based quantification of H3K14ac abundance using total H3 as a control in MDA-MB-436 cells following control or 3 μM of the indicated chemical probes during a 5-day treatment. Graph indicate mean and error bars denote standard deviation from three independent assays. p value computed using a two-stage step-up Benjamini t test; **p<0.01; *** p<0.001. k) Immunoblot based quantification of H3K14ac abundance using total […]

GCN5L2, sequence (Q92830 whole entry, species assumed): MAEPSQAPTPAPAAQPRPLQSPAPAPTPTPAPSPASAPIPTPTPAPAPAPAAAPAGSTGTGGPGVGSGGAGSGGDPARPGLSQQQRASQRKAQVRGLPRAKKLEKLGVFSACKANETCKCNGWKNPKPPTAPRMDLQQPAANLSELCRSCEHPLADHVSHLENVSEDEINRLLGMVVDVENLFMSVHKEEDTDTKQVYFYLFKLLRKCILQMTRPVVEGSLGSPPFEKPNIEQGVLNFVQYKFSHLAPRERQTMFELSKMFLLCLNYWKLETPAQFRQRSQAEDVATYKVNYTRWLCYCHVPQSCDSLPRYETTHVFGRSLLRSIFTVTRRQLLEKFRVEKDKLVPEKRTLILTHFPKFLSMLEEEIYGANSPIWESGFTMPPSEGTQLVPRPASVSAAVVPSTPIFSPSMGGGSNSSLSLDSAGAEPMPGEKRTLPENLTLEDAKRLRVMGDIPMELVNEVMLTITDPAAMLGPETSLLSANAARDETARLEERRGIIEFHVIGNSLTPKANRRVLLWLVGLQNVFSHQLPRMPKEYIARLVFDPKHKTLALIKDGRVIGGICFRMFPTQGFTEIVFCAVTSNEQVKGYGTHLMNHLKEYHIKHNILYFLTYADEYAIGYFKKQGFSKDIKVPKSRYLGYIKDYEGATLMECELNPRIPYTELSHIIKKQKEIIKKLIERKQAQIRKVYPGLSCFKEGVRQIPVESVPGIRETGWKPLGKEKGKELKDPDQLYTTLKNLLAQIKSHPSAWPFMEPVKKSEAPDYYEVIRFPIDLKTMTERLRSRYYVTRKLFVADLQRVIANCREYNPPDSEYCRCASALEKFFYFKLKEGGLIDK
EP300, sequence (Q09472 whole entry, species assumed): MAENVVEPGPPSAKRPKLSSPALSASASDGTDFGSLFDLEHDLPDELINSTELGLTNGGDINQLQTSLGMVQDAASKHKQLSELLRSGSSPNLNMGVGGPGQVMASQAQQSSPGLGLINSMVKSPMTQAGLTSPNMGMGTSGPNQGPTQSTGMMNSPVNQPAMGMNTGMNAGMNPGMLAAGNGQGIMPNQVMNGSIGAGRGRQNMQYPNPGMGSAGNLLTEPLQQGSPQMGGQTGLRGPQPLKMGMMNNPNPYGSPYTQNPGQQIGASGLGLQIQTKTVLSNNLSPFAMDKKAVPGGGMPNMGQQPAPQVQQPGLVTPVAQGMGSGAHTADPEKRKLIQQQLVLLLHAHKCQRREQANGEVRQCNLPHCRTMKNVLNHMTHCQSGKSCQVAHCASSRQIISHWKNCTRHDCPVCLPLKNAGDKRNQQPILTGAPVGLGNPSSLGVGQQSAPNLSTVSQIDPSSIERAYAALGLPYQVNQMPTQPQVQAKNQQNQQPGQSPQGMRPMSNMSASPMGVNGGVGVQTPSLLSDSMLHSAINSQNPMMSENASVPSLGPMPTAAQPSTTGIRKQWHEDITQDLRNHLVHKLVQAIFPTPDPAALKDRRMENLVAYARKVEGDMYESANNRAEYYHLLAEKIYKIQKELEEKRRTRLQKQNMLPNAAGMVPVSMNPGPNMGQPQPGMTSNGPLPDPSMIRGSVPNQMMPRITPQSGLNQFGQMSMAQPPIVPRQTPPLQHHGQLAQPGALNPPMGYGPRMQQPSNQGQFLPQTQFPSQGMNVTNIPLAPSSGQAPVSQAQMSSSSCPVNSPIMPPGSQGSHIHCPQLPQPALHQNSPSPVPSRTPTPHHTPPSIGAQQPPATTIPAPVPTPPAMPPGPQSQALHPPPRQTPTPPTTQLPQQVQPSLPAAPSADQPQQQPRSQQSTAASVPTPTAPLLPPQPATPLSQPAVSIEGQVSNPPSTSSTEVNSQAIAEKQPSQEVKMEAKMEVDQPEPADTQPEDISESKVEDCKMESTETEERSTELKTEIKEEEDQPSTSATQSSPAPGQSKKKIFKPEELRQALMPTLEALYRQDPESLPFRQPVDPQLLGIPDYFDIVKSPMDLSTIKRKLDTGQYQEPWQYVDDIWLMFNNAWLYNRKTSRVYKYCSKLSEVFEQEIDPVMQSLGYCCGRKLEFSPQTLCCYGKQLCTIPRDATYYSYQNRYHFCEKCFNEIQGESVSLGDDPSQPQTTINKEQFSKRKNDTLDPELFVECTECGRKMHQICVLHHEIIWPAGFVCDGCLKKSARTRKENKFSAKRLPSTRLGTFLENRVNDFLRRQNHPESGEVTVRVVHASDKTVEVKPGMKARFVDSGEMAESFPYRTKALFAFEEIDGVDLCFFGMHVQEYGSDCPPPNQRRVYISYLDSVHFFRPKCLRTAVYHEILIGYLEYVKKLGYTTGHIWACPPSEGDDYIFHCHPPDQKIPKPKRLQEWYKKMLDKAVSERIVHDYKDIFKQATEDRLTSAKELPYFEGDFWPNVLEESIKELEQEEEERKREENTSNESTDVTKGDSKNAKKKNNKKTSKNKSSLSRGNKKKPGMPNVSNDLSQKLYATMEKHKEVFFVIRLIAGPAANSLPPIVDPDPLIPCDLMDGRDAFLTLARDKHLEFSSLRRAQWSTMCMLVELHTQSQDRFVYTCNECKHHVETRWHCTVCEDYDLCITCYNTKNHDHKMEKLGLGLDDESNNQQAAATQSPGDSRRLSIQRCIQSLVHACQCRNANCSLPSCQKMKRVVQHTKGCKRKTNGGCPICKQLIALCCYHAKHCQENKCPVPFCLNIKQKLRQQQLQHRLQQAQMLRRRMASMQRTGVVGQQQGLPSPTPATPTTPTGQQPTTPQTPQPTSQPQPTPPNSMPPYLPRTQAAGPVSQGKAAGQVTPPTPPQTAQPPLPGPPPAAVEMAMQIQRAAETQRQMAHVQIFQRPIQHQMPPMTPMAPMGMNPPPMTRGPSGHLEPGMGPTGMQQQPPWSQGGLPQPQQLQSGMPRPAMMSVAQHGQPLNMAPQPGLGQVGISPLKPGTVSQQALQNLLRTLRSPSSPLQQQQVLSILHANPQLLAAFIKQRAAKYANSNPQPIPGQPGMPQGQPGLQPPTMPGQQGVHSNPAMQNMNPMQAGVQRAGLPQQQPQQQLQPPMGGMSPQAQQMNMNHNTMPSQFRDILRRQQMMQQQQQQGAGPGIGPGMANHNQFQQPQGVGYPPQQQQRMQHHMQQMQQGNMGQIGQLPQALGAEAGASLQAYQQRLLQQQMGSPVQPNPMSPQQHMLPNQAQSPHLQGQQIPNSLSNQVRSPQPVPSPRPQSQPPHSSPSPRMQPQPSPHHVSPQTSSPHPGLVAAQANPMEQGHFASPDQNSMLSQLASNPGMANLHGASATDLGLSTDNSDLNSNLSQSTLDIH

In the case of `Cc1sc2c(c1C)C(c1ccc(Cl)cc1)=NC(CC(=O)OC(C)(C)C)c1nnc(C)n1-2` (centres unmarked) [JQ1], the activity at 1 µM (MYST3) is reported as 108%, the activity at 10 µM (MYST3) is reported as 100% and the “combination effect with BAY-876 across the three cell lines” value (three TNBC lines) is reported as “efficacy in only one of the three tested TNBC lines”. For the same compound, the activity at 1 µM (MYST1) was 99%, the activity at 10 µM (MYST1) was 95% and the activity at 1 µM (HAT1) was 98%. For the same compound, the activity at 10 µM (HAT1) was 103%, the “changes in gene-expression levels” value (C2C12 myoblast cells) was “significant changes in gene-expression levels” and the activity at 1 µM (EP300) was 99%. The activity at 10 µM (EP300) was 102%, the “anti-proliferative effect (confluency)” value (ten TNBC cell lines) was “strong anti-proliferative effects” and the activity at 1 µM (GCN5L2) was 104%. The activity at 10 µM (GCN5L2) was 98% and the “synergy with BAY-876” value [1] was “no significant synergistic effect”.
